# “Also recorded” adds a separate entry of the source.
# Tested on: P. cynomolgi sporozoite-infected rhesus macaques
# Test: Causal prophylaxis in P. cynomolgi sporozoite-infected rhesus macaques
# Assay type: in vivo, Plasmodium cynomolgi
# Details: 20 mg/kg oral for 5 days from day 0, 4 monkeys, follow-up until day 102 p.i.
# Procedure: Sporozoites were harvested from P. cynomolgi-infected mosquitoes, washed with phosphate-buffered saline (PBS), and diluted to 100,000 sporozoites (spz)/ml in PBS. One-milliliter aliquots of sporozoites were prepared and injected into monkeys via intravenous (i.v.) injection.
# Monkeys were treated according to the schedule shown in Table 1 (stratification of treatment groups is given in the supplemental material). During treatment, monkeys were weighed daily and received the compound via gavage, followed by gastric feeding (weight change during treatment is shown in Table S6 in the supplemental material). […]
# Parasitemia was closely monitored by thin-film analysis. […] Thin-film slides were stained with 20% Giemsa stain, and at least 50 fields (±20,000 erythrocytes [RBCs]) were analyzed with a bright-field microscope (×1,200 magnification). […] From day 23 p.i., monkeys were monitored daily for relapses. The KDU691 radical-cure (group 691-RC) treatment and control groups were monitored until the first relapse. The LMV599 control (group 599-C), radical-cure (group 599-RC), and PQ radical-cure (group PQ-RC) treatment groups were monitored until the second relapse or until day 100 p.i. […]
# The prophylaxis groups were monitored daily until day 22 p.i. From day 22 to day 45 p.i., they were monitored three times a week, and from day 45 to day 105 p.i. (100 days after treatment), they were monitored twice a week. […]
compound,measurement,value
CNC(=O)c1ccc(-c2cnc3cnc(C(=O)N(C)c4ccc(Cl)cc4)cn23)cc1 [KDU691],causal prophylactic outcome (blood-stage parasitemia),"fully protective; also recorded: completely effective; also recorded: eradicated all liver-stage parasites, including hypnozoites"

# — article PMC4862498, “PI4 Kinase Is a Prophylactic but Not Radical Curative Target in Plasmodium vivax-Type Malaria Parasites” (Antimicrobial Agents and Chemotherapy, 2016)
